Reference: patent publication US20030198690A1, “Device and method for treating restenosis” (Medical Research Fund of Tel Aviv Sourasky Medical Center, priority 2002, published 2003)

Assays:
[1] = tested on: Wistar rats; test: Balloon dilation carotid injury in rats, morphometric and immunohistochemical analysis of arteries; format: in vivo
Description: (§1) Carotid injury was induced in Wistar rats by balloon dilation according to a conventional model (Clowes A W, Reidy M A, Clowes M M. Kinetic of cellular proliferation after arterial injury. Lab Invest 1983; 49:327-334). Rats were then injected daily i.p. with either zinc (at a concentration of 5 mg/kg) or saline (control) for 2 weeks until sacrifice. Arteries were taken for morphometeric and immunohistochemical analysis.

[2] = Levels of serum zinc in treated rats; format: in vivo, Wistar rats; conditions: zinc 5 mg/kg i.p. daily for 2 weeks; p<0.01 vs control rats
Description: as §1
Levels of serum zinc were elevated in the zinc-treated rats (248.2±19.4 pg/ml) as compared to the control rats (136.8±7.2 pg/ml; p<0.01).

[Zn] [zinc]
inflammatory cell infiltrate (NF-κB and iNOS positive cells) ([1]; immunohistochemical staining of arteries, zinc 5 mg/kg i.p. daily for 2 weeks): a reduction was evident
external elastic lamina size ([1]; zinc 5 mg/kg i.p. daily for 2 weeks after carotid balloon injury): without influencing
neointimal area ([1]; zinc 5 mg/kg i.p. daily for 2 weeks after carotid balloon injury, FIG. 1): reduced
neointimal/medial ratio ([1]; zinc 5 mg/kg i.p. daily for 2 weeks after carotid balloon injury, FIG. 2): reduced
Levels of serum zinc [2]: 0.2482 ± 0.0194 ng/mL
